Measured values: PMC7648750, “In vitro and in vivo BNCT investigations using a carborane containing sulfonamide targeting CAIX epitopes on malignant pleural mesothelioma and breast cancer cells” (Scientific Reports, 2020)

Legend:
MCF7 cells [1] = test: MTT cell vitality assay; assay type: cell-based, human; conditions: normoxia
Description: (§1) The MTT assay is based on the reduction in the mitochondria of metabolically active cells by succinate dehydrogenase obtaining a precipitation of purple formazan crystal. The assay was carried out using the same protocol reported by Azzi et al[42]. Briefly, AB22, ZL34 and MCF7 cells were seeded at a density of 7 × 10^3, 5 × 10^3 and 1 × 10^4 cells per well, respectively, in a 96-well microtiter plate. After 24 h at 37 °C and 5% CO2, they were incubated with increasing concentration of CA-SF or AZ for 24 h in a condition of normoxia at 37 °C and 5% CO2 by adding stock solutions in dimethyl sulfoxide (DMSO). In all the conditions the concentration of DMSO during the cell incubation was maintained under 0.25% (v/v) in cell medium. After the incubation, the medium was removed and each well was incubated with thiazolyl blue tetrazolium bromide (Sigma) dissolved in the medium at a concentration of 0.45 mg/mL for 4 h at 37 °C and 5% CO2. Then, after medium elimination, 150 µL of DMSO were added into each well to solubilise the formazan salt crystals produced by the metabolism of live cells and the microplate was incubated at room temperature (RT) for 30 min. Finally, absorbance was measured at 570 nm using an iMark microplate reader (Biorad). Cell vitality was reported as the percentage of […] cells observed in the treated samples relative to that observed in the non-treated control cells.

ZL34 cells [2] = test: MTT cell vitality assay; assay type: cell-based, human; conditions: normoxia
Description: as §1

AB22 cells [3] = test: Cell uptake of boron (ICP-MS); assay type: cell-based, mouse; conditions: AB22, 130 µM CA-SF in culture medium, 24 h, 37 °C
Description: For the in vitro uptake experiments, 6 × 10^5 MCF7, 4.5 × 10^5 ZL34 and 2 × 10^5 AB22 were seeded in 6 cm of diameter dishes. After 24 h for MCF7 and ZL34 and after 72 h for AB22, the cells were incubated for 24 h with increasing concentration of CA-SF. All the incubations were performed in condition of normoxia at 37 °C, 5% CO2. At the end of the incubation, cells were washed three times with 3 ml ice-cold PBS and detached with 0.05% trypsin and 0.02% EDTA. Finally, all cell samples were transferred in falcon tubes and sonicated at 30% of power for 30 s in ice. The boron content of each cell sample lysates was determined by ICP-MS technique (see below). The milligrams of proteins, proportional to the number of cells, of each cell sample lysate, was evaluated by the Bradford assay (Biorad) using bovine serum albumin as a standard.
Boron content from cell samples, mice organs, plasma and tumours were determined using inductively coupled plasma mass spectrometry (ICP-MS) (Element-2; Thermo-Finnigan, Rodano (MI), Italy).
Sample digestion was performed using a high performance Microwave Digestion System (ETHOS UP Milestone, Bergamo, Italy) after the addition of concentrated HNO3 (70%) to cell lysates (1:1), in a final volume of 0.4 mL. […] The amounts of boron µg /g tissue were thus calculated considering that 1 g of tissue contains 1 × 10^9 cells.

AB22 cells [4] = test: BNCT in vitro: viable cells 24 h after neutron irradiation (trypan blue); assay type: cell-based, mouse; conditions: AB22, 130 µM 24 h, thermal neutrons 15 min 30 kW, 24 h after irradiation
Description: (§2) 75 flasks of MCF7 (4 flasks), ZL34 (4 flasks) and AB22 (4 flasks) were seeded at a density of 1.8 × 10^6 cells, 1.2 × 10^6 cells and 5.5 × 10^5 cells, respectively. 24 h later for MCF7 and ZL34 and 72 h later for AB22, 2 flasks of each cell lines were incubated for 24 h in the presence of 72 µM, 187.5 µM and 130 µM of CA-SF, respectively. After the incubation, cells were washed with PBS and their medium was renewed. Two flasks of MCF7, ZL34 and AB22 cells incubated with CA-SF and two flasks containing non-treated control cells were irradiated for 15′ at 30 kW reactor power in the thermal column of the TRIGA Mark II reactor at the University of Pavia, Italy. At the end of the irradiation, the medium was removed, it was replaced with fresh medium and flasks were placed at 37 °C in a humidified atmosphere of 5% CO2.
The proliferation assay was carried out following the same procedure reported in reference 32. The day after irradiation cells were detached with 0.05% trypsin and 0.02% EDTA and the trypan blue exclusion test of cell viability was performed. Cell viability was reported as percentage of cells observed in treated a/o irradiated samples relative to that observed in control cells.

MCF7 cells [5] = test: Proliferation assay of cells surviving irradiation; assay type: cell-based, human; conditions: MCF7, 72 µM CA-SF before neutron irradiation
Description: as §2, with “At the end of the irradiation, the medium was removed, it was replaced with fresh medium and flasks were placed at 37 °C in a humidified atmosphere of 5% CO2.” left out
(§3) Then, around 7 × 10^5 MCF7, 3.5 × 10^5 ZL34 and 1 × 10^5 AB22 cells from each differently treated flask were seeded in 10 cm diameter culture dishes. […] Then, cells were sonicated for 30 s at 30% power in ice and the total cell protein concentration (that is proportional to the number of cells) from cell lysates was determined by the Bradford method, using bovine serum albumin as a standard. The Cell Growth Rate was calculated as follows: Number of cellsti-Number of cellst0/Number of cellst0×100 for which Number of cells (ti) is the number of cells measured at the various time intervals and the number of cells (t0) is the number of cells at the starting point (t = 0) of the proliferation assay.

ZL34 cells [6] = test: Proliferation assay of cells surviving irradiation; assay type: cell-based, human; conditions: ZL34, 187.5 µM CA-SF before neutron irradiation
Description: as §2, with “At the end of the irradiation, the medium was removed, it was replaced with fresh medium and flasks were placed at 37 °C in a humidified atmosphere of 5% CO2.” left out
as §3

[7] = Solubility in aqueous media; assay type: physicochemical

Q: Which “cell vitality measured by MTT” value (MCF7 cells [1]; MCF7, 72 µM CA-SF, 24 h, 37 °C) does the source give for 1-Sulfonamidomethyl-o-carborane [CA-SF] here?
A: about 80%

Q: What about the “percentage of viable cells with increasing concentration (MTT)” value (MCF7 cells [1]; MCF7, 24 h, Fig. 3) of the same substance?
A: steadily decreases

Q: What about the “cell vitality measured by MTT” value (ZL34 cells [2]; ZL34, 187.5 µM CA-SF, 24 h, 37 °C) of the same substance?
A: about 80%

Q: What about the “percentage of viable cells with increasing concentration (MTT)” value (ZL34 cells [2]; ZL34, 24 h, Fig. 3) of the same substance?
A: steadily decreases

Q: And the “boron loaded into the target cells” value (AB22 cells [3])?
A: 160 µg/g

Q: And the “viability of CA-SF treated and irradiated cells vs CA-SF treated cells” value (AB22 cells [4])?
A: significantly reduced

Q: What about the “proliferation rate of cells surviving to irradiation” value (MCF7 cells [5]) of the same substance?
A: marked inhibition of proliferation

Q: And the “proliferation rate of cells surviving to irradiation” value (ZL34 cells [6])?
A: marked inhibition of proliferation

Q: And the “solubility in aqueous media” value [7]?
A: low
